Each structure is given as a SMILES string. “And” between values parts separate entries of the source, which are not always exact repeats. Identical values can stand only once.

The target of test [1] is T1, myeloperoxidase (MPO) (Homo sapiens, UniProt P05164).
T1 sequence (P05164 49-745): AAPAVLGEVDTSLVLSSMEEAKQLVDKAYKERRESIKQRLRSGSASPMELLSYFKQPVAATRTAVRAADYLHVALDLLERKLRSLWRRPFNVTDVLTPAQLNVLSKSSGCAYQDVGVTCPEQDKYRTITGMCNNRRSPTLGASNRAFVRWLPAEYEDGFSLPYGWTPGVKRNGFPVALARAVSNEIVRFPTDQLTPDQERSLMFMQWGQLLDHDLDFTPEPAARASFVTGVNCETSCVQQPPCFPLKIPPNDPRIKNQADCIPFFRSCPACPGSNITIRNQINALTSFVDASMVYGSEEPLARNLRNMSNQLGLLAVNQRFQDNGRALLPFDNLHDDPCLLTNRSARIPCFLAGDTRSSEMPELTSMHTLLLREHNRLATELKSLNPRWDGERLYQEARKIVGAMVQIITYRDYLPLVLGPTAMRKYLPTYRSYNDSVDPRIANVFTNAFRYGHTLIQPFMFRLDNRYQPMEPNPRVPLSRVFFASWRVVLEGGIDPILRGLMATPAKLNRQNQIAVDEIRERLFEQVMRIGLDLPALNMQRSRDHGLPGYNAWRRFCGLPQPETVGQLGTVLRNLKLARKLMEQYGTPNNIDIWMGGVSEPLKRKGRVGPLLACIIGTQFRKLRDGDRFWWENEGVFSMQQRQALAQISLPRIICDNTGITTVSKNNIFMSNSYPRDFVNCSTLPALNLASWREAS
The test is described as follows: MPO peroxidation assay (Amplex Red assay). Format: biochemical. Put shortly:
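Peroxidase activity read as kinetic resorufin fluorescence after adding an Amplex Red mix (200 μM Amplex Red, 10 mM H2O2) to MPO preincubated 10 min at room temperature with inhibitor in 100 mM KPi pH 7.4. Linear-phase slopes (180–540 s) gave % inhibition, fitted with a Hill-slope model for IC50.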

Test [2] deals with T1, myeloperoxidase (MPO). Kind of test: MPO chlorination assay (APF assay). It is filed as biochemical. On the procedure: [formula] where A=minimal Y value (activity level of inhibited sample), B=maximal Y value (activity level of uninhibited sample), C=Log IC50, D=Hill Slope, x=concentration of inhibitor. MPO Chlorination Assay (APF Assay)
MPO chlorination activity was measured in 100 mM KPi (pH 7.4) by utilizing the non-fluorescent reagent Aminophenyl fluorescein (APF, Invitrogen Cat. #A36003). APF is cleaved by (—OCl) to yield the fluorescent compound fluorescein. […] Enzyme, inhibitor, and chloride were preincubated for ten minutes at room temperature.
After the ten minute preincubation, 25 μL of an APF mixture containing […], 120 mM NaCl and 10 μM H2O2 was added to the plate using the internal dispensing system of a Hammatsu FDSS 6000. […] IC50 values for inhibitors were calculated by taking the slope of the linear portion of the kinetic measurement (20 seconds to ˜80-120 secs).
IC50 values were calculated by determining the slope of the linear portion of the kinetic trace (180-540 secs), and using that calculated slope to determine % inhibition occurring at each concentration of inhibitor using the following equation:
[formula] where A=minimal Y value (activity level of inhibited sample), B=maximal Y value (activity level of uninhibited sample), C=Log IC50, D=Hill Slope, x=concentration of inhibitor. EPX Bromination Assay

Where [3] appears, read: MPO peroxidation, 100 mM KPi pH 7.4, ten minute preincubation, read-out: Amplex Red Assay IC50 value.
Where [4] appears, read: MPO chlorination, 100 mM KPi pH 7.4, ten minute preincubation, read-out: APF Assay IC50 value.
Setting [5] is: MPO peroxidation (Amplex Red), ranges given, read-out: MPO peroxidation assay IC50 values (binned).

`Cc1nn(-c2cccc(F)c2)nc1COc1cc(N)nc2[nH]nnc12` [Example 12, 7-((2-(3-Fluorophenyl)-5-methyl-2H-1,2,3-triazol-4-yl)methoxy)-3H-[1,2,3]triazolo[4,5-b]pyridin-5-amine]: the IC50 (commonly the point on the concentration scale where inhibition reaches its midpoint) was found to be 0.02 µM on myeloperoxidase (MPO) [1] (setting [3]) and 0.08 µM at myeloperoxidase (MPO) [2] (setting [4]).
Taken in the same sequence, the figures for `COc1cccc(-n2nc(C)c(COc3cc(N)nc4[nH]nnc34)n2)c1` [Example 13, 7-((2-(3-Methoxyphenyl)-5-methyl-2H-1,2,3-triazol-4-yl)methoxy)-3H-[1,2,3]triazolo[4,5-b]pyridin-5-amine] were 0.03 µM and 0.1 µM.
For the compound `Nc1cc(OCc2cc(-c3ccccc3)no2)c2nn[nH]c2n1` [Example 14, 7-((3-Phenylisoxazol-5-yl)methoxy)-3H-[1,2,3]triazolo[4,5-b]pyridin-5-amine], the IC50 against myeloperoxidase (MPO) [1] (Amplex Red Assay IC50 value, MPO peroxidation, 100 mM KPi pH 7.4, ten minute preincubation) worked out at 0.12 µM; against myeloperoxidase (MPO) [2], 0.12 µM.
Take `Nc1cc(OCc2cncn2Cc2ccccc2)c2nn[nH]c2n1` [Example 28, 7-((1-Benzyl-1H-imidazol-5-yl)methoxy)-3H-[1,2,3]triazolo[4,5-b]pyridin-5-amine]: the IC50 at myeloperoxidase (MPO) [1] (setting [3]) amounted to 2.4 µM; on myeloperoxidase (MPO) [2] (setting [4]), 1.19 µM.
For the compound `Nc1cc(OCC2COc3ccccc3O2)c2nn[nH]c2n1` (centres unmarked) [Example 32, 7-((2,3-Dihydrobenzo[b][1,4]dioxin-2-yl)methoxy)-3H-[1,2,3]triazolo[4,5-b]pyridin-5-amine], the IC50 turned out to be 0.61 µM on myeloperoxidase (MPO) [1] (setting [3]) and 0.32 µM on myeloperoxidase (MPO) [2] (setting [4]).
The corresponding values for `Nc1cc(OCC2COc3ccccc3C2)c2nn[nH]c2n1` (centres unmarked) [Example 34, 7-(Chroman-3-ylmethoxy)-3H-[1,2,3]triazolo[4,5-b]pyridin-5-amine] are 1.39 µM and 0.79 µM.
Taken in the same sequence, the figures for `COc1cc(-c2nc(COc3cc(N)nc4[nH]nnc34)c(C)o2)ccc1Cl` [Example 43, 7-((2-(4-Chloro-3-methoxyphenyl)-5-methyloxazol-4-yl)methoxy)-3H-[1,2,3]triazolo[4,5-b]pyridin-5-amine] were 0.76 µM and 1.52 µM.
The corresponding values for `Cc1oc(-c2ccc(S(C)(=O)=O)cc2)nc1CSc1cc(N)nc2[nH]nnc12` [Example 46, 7-((5-Methyl-2-(4-(methylsulfonyl)phenyl)oxazol-4-yl)methylthio)-3H-[1,2,3]triazolo[4,5-b]pyridin-5-amine] are 0.09 µM and 0.47 µM.
Regarding `Nc1cc(OCc2nn(Cc3ccccc3)c3ccccc23)c2nn[nH]c2n1` [Example 53, 7-((1-Benzyl-1H-indazol-3-yl)methoxy)-3H-[1,2,3]triazolo[4,5-b]pyridin-5-amine], the IC50 amounted to 0.08 µM on myeloperoxidase (MPO) [1] (setting [3]) and 0.1 µM on myeloperoxidase (MPO) [2] (setting [4]).
Taken in the same sequence, the figures for `CCc1nn(-c2ccccc2)nc1COc1cc(N)nc2[nH]nnc12` [Example 57, 7-((5-Ethyl-2-phenyl-2H-1,2,3-triazol-4-yl)methoxy)-3H-[1,2,3]triazolo [4,5-b]pyridin-5-amine] were 0.08 µM and 0.32 µM.
The corresponding values for `Cc1nn(-c2ccc(N3CCNC(=O)C3)nc2)nc1COc1cc(N)nc2[nH]nnc12` [Example 61, 4-(5-(4-(((5-Amino-3H-[1,2,3]triazolo[4,5-b]pyridin-7-yl)oxy)methyl)-5-methyl-2H-1,2,3-triazol-2-yl)pyridin-2-yl)piperazin-2-one] are 0.09 µM and 0.91 µM.
The corresponding values for `Nc1cc(OCC2CCN(C3=NC=CCN3)CC2)c2nn[nH]c2n1` [Example 85, 7-((1-(1,6-Dihydropyrimidin-2-yl)piperidin-4-yl)methoxy)-3H-[1,2,3]triazolo[4,5-b]pyridin-5-amine] are 1.08 µM and 0.64 µM.
As for `CS(=O)(=O)N1CCCCC1COc1cc(N)nc2[nH]nnc12` (centres unmarked) [Example 86, 7-((1-(Methylsulfonyl)piperidin-2-yl)methoxy)-3H-[1,2,3]triazolo[4,5-b]pyridin-5-amine], the IC50 on myeloperoxidase (MPO) [1] (setting [3]) turned out to be 2.03 µM; at myeloperoxidase (MPO) [2] (setting [4]), 1.1 µM.
Consider `CN1CCN(c2ccc(-c3cnc(COc4cc(N)nc5[nH]nnc45)c(F)c3)cn2)CC1` [Example 107, 7-((5-fluoro-6′-(4-methylpiperazin-1-yl)-[3,3′-bipyridin]-6-yl)methoxy)-3H-[1,2,3] triazolo[4,5-b]pyridin-5-amine], for which the IC50 on myeloperoxidase (MPO) [1] (setting [5]) is at most 0.06 µM.
On the same count and under the same terms, the same measure for `Nc1cc(OCc2ncc(-c3ccc(CO)nc3)cc2F)c2nn[nH]c2n1` [Example 108, (6′-(((5-amino-3H-[1,2,3]triazolo[4,5-b]pyridin-7-yl)oxy)methyl)-5′-fluoro-[3,3′-bipyridin]-6-yl)methanol]: 0.06 to 0.15 µM; for `Nc1cc(OCc2cc(-c3ccc(N4CCNCC4)nc3)ncc2F)c2nn[nH]c2n1` [Example 110, 7-((5-fluoro-6′-(piperazin-1-yl)-[2,3′-bipyridin]-4-yl)methoxy)-3H-[1,2,3] triazolo[4,5-b]pyridin-5-amine]: at most 0.06 µM.
Still for that read-out and setting: under `Nc1cc(OCc2cc(-c3ccc(CO)nc3)ncc2F)c2nn[nH]c2n1` [Example 111, (4-(((5-amino-3H-[1,2,3]triazolo[4,5-b]pyridin-7-yl)oxy)methyl)-5-fluoro-[2,3′-bipyridin]-6′-yl)methanol] stands 0.06 to 0.15 µM.
Same read-out and setting: under `Nc1nc(OCc2cccc3occc23)c2nn[nH]c2n1` [Example 112, 7-(Benzofuran-4-ylmethoxy)-3H-[1,2,3]triazolo[4,5-d]pyrimidin-5-amine] stands 0.06 to 0.15 µM; under `Nc1nc(OCc2cccnc2)c2nn[nH]c2n1` [Example 113, 7-(pyridin-3-ylmethoxy)-3H-[1,2,3] triazolo[4,5-d]pyrimidin-5-amine], 0.06 to 0.15 µM.
As to `Nc1nc(OCc2cccc3cccnc23)c2nn[nH]c2n1` [Example 114, 7-(quinolin-8-ylmethoxy)-3H-[1,2,3] triazolo[4,5-d]pyrimidin-5-amine], the IC50 on myeloperoxidase (MPO) [1] (setting [5]) lay within 0.06 to 0.15 µM.
With `Nc1nc(OCc2ccc3ncccc3c2)c2nn[nH]c2n1` [Example 115, 7-(quinolin-6-ylmethoxy)-3H-[1,2,3] triazolo[4,5-d]pyrimidin-5-amine], the IC50 on myeloperoxidase (MPO) [1] (setting [5]) was in the range of 0.06 to 0.15 µM.
Still for that read-out and setting: the same measure for `Nc1nc(OCc2cccc3ncccc23)c2nn[nH]c2n1` [Example 116, 7-(quinolin-5-ylmethoxy)-3H-[1,2,3] triazolo[4,5-d]pyrimidin-5-amine]: 0.06 to 0.15 µM; for `COc1ccc(-c2cncc(COc3nc(N)nc4[nH]nnc34)c2)cc1` [Example 118, 7-((5-(4-methoxyphenyl)pyridin-3-yl)methoxy)-3H-[1,2,3]triazolo[4,5-d] pyrimidin-5-amine]: 0.06 to 0.15 µM; for `Nc1nc(OCc2cc(Cl)nc(Cl)c2)c2nn[nH]c2n1` [Example 119, 7-((2,6-dichloropyridin-4-yl)methoxy)-3H-[1,2,3]triazolo[4,5-d]pyrimidin-5-amine]: 0.06 to 0.15 µM.
As for `Nc1nc(OCc2ccc(Cl)nc2)c2nn[nH]c2n1` [Example 120, 7-((6-chloropyridin-3-yl)methoxy)-3H-[1,2,3]triazolo[4,5-d]pyrimidin-5-amine], the IC50 on myeloperoxidase (MPO) [1] (setting [5]) is 0.15 to 1 µM.
On the same count and under the same terms, under `Nc1nc(OCc2cn(-c3ccccc3)nn2)c2nn[nH]c2n1` [Example 121, 7-((1-phenyl-1H-1,2,3-triazol-4-yl)methoxy)-3H-[1,2,3]triazolo[4,5-d] pyrimidin-5-amine] stands 0.06 to 0.15 µM; under `Nc1nc(OCc2ccc(Oc3ccccc3)nc2)c2nn[nH]c2n1` [Example 122, 7-((6-phenoxypyridin-3-yl)methoxy)-3H-[1,2,3]triazolo[4,5-d]pyrimidin-5-amine], 0.06 to 0.15 µM.
The same measure, in the same setting: the same measure for `Nc1nc(OCc2csc(-c3cccc(Cl)c3Cl)n2)c2nn[nH]c2n1` [Example 124, 7-((2-(2,3-dichlorophenyl)thiazol-4-yl)methoxy)-3H-[1,2,3]triazolo[4,5-d] pyrimidin-5-amine]: 0.06 to 0.15 µM and 0.15 to 1 µM.

For the origin of these results see patent publication US9920075B2, “Triazolopyridine and triazolopyrimidine inhibitors of myeloperoxidase” (BRISTOL-MYERS SQUIBB COMPANY, priority 2014, dated 2018).
